Laboratory results taken from ChEMBL document CHEMBL5696441 (Nat Chem Biol, 2011).

Tests used:
[1] = biological target: T1, Ephrin type-A receptor 1 (Homo sapiens) (UniProt P21709); assay: Inhibition of human EPHA1 assessed as residual activity at 1 uM using polyEY as substrate in presence of 33P-ATP by ProQinase assay relative to control
T1 sequence (whole entry): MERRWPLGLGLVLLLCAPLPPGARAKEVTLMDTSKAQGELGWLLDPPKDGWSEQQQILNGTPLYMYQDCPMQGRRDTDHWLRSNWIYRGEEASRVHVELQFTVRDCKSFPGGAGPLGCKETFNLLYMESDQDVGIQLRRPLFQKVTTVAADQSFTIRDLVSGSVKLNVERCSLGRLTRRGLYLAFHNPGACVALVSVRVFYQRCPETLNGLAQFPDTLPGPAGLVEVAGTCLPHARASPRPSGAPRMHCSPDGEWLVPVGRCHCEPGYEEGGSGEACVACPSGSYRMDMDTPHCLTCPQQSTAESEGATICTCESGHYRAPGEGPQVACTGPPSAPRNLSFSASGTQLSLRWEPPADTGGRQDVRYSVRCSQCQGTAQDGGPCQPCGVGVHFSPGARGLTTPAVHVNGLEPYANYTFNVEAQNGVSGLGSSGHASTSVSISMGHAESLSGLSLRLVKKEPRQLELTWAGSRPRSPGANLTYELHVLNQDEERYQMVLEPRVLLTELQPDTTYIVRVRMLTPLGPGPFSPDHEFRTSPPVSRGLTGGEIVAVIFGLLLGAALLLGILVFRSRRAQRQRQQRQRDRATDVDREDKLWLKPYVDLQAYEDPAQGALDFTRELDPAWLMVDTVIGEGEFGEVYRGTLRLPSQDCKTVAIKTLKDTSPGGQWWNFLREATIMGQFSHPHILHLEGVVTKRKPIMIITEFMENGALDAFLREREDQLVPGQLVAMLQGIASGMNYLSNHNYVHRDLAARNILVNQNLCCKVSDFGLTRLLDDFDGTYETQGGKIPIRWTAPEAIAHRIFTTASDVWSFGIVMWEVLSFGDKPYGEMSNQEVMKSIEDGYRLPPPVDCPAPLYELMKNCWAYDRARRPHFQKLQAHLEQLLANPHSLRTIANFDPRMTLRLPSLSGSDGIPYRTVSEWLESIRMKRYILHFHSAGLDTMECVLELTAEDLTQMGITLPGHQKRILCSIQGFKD

[2] = biological target: Serine/threonine-protein kinase Nek9 (Homo sapiens) (UniProt Q8TD19); assay: Inhibition of human NEK9 assessed as residual activity at 1 uM using RBER-GSK3 as substrate in presence of 33P-ATP by ProQinase assay relative to control
Chain of Serine/threonine-protein kinase Nek9 (Homo sapiens) (Q8TD19 whole entry, the tested form may be a part): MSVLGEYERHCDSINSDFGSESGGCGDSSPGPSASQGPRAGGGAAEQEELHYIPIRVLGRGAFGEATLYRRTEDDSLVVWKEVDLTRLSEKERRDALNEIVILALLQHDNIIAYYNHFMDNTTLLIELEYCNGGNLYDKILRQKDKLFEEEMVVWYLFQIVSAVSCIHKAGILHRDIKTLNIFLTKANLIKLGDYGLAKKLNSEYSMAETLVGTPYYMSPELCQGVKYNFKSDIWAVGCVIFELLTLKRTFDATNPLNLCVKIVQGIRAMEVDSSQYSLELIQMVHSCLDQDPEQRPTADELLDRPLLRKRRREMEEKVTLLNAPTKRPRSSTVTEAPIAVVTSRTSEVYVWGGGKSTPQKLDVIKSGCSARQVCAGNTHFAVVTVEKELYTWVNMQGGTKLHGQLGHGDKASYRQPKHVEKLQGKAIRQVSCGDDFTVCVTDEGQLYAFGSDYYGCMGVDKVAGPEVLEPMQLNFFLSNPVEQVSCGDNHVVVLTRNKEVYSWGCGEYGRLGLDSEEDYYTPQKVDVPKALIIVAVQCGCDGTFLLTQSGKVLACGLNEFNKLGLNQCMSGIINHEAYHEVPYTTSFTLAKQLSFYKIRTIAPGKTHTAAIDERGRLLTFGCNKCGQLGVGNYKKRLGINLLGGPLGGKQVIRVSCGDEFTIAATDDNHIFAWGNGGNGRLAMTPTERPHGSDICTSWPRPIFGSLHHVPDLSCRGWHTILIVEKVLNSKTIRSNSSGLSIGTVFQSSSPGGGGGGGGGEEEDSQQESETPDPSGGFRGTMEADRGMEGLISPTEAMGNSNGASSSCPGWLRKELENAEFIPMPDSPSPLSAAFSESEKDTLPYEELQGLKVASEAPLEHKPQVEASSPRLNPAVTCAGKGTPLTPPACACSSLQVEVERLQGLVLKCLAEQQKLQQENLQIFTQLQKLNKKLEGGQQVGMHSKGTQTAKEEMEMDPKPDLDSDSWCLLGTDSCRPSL

[3] = biological target: LIM domain kinase 1 (Homo sapiens) (UniProt P53667); assay: Inhibition of human LIMK1 assessed as residual activity at 1 uM using CFL2 as substrate in presence of 33P-ATP by ProQinase assay relative to control
Chain of LIM domain kinase 1 (Homo sapiens) (P53667 whole entry, looked up, the tested form may be a part): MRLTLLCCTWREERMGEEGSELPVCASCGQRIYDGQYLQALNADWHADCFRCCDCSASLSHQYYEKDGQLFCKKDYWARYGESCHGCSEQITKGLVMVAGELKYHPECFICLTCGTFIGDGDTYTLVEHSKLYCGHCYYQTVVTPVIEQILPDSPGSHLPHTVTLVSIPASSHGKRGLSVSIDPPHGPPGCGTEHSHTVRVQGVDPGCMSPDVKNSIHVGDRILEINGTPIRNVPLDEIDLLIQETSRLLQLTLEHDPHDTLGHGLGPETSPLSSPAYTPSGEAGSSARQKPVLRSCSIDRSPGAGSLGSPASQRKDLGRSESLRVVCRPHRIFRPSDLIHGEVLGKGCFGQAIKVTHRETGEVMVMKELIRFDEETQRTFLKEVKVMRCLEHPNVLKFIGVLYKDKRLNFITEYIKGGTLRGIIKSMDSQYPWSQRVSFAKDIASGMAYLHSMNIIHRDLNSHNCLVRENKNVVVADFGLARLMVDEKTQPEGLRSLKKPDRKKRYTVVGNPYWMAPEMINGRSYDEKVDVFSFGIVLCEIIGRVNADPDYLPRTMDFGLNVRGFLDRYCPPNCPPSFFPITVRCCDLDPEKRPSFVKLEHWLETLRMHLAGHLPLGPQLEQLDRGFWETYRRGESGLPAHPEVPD

[4] = biological target: Serine/threonine-protein kinase 16 (Homo sapiens) (UniProt O75716); assay: Inhibition of human TSF1 assessed as residual activity at 1 uM using casein as substrate in presence of 33P-ATP by ProQinase assay relative to control
Chain of Serine/threonine-protein kinase 16 (Homo sapiens) (O75716 whole entry): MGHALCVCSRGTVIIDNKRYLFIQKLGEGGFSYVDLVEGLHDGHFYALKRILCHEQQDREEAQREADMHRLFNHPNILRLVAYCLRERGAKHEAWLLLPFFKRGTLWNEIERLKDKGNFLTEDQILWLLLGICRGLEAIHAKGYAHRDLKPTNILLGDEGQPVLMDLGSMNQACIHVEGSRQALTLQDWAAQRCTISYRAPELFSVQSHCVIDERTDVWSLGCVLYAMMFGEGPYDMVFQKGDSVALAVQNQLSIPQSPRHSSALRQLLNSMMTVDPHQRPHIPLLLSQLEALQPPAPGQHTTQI

[5] = biological target: Serine/threonine-protein kinase Nek9 (Homo sapiens) (UniProt Q8TD19); assay: Inhibition of NEK9 (unknown origin) assessed as remaining activity at 1 uM by Kinome scan method relative to control
[6] = biological target: MAP kinase-interacting serine/threonine-protein kinase 2 (Homo sapiens) (UniProt Q9HBH9); assay: Inhibition of human MKNK2 assessed as residual activity at 1 uM using RB-S6P as substrate in presence of 33P-ATP by ProQinase assay relative to control
Chain of MAP kinase-interacting serine/threonine-protein kinase 2 (Homo sapiens) (Q9HBH9 whole entry, looked up): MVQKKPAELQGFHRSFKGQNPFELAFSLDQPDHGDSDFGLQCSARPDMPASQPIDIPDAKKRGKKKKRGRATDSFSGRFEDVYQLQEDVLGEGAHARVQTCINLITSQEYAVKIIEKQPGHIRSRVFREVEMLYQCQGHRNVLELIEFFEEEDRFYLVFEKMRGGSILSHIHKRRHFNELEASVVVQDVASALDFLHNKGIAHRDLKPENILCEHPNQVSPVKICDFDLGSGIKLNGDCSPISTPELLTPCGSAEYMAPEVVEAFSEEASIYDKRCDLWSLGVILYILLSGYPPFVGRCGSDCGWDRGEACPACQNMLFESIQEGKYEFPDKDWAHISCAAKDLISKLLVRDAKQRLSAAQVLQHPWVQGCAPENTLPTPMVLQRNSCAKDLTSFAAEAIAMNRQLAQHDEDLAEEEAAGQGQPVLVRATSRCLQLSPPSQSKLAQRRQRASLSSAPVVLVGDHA

[7] = biological target: Mitogen-activated protein kinase kinase kinase kinase 5 (Homo sapiens) (UniProt Q9Y4K4); assay: Inhibition of MAP4K5 (unknown origin) assessed as remaining activity at 1 uM by Kinome scan method relative to control
Chain of Mitogen-activated protein kinase kinase kinase kinase 5 (Homo sapiens) (Q9Y4K4 whole entry, looked up): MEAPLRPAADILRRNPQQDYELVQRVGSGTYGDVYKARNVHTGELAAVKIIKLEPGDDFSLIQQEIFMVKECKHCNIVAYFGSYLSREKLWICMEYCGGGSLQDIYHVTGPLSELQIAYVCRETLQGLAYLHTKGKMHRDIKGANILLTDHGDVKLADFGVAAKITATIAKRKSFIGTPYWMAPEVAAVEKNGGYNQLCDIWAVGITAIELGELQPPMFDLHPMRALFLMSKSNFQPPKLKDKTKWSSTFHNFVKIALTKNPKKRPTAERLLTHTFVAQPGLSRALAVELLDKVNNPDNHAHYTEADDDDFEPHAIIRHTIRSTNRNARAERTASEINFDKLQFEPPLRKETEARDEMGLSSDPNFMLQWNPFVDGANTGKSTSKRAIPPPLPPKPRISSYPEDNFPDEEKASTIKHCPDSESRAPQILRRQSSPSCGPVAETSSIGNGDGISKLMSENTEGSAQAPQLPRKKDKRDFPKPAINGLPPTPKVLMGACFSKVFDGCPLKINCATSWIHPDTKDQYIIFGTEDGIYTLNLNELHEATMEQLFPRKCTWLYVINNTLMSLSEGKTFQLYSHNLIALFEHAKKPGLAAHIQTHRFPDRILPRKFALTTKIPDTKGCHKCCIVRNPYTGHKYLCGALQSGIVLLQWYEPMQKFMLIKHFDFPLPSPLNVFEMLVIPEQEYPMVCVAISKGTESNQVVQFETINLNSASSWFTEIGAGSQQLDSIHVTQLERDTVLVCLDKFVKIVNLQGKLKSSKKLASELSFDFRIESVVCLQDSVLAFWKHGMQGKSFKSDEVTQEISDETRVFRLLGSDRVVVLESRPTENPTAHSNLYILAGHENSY

[8] = biological target: NUAK family SNF1-like kinase 2 (Homo sapiens) (UniProt Q9H093); assay: Inhibition of SNARK (unknown origin) assessed as remaining activity at 1 uM by Kinome scan method relative to control
Chain of NUAK family SNF1-like kinase 2 (Homo sapiens) (Q9H093 whole entry): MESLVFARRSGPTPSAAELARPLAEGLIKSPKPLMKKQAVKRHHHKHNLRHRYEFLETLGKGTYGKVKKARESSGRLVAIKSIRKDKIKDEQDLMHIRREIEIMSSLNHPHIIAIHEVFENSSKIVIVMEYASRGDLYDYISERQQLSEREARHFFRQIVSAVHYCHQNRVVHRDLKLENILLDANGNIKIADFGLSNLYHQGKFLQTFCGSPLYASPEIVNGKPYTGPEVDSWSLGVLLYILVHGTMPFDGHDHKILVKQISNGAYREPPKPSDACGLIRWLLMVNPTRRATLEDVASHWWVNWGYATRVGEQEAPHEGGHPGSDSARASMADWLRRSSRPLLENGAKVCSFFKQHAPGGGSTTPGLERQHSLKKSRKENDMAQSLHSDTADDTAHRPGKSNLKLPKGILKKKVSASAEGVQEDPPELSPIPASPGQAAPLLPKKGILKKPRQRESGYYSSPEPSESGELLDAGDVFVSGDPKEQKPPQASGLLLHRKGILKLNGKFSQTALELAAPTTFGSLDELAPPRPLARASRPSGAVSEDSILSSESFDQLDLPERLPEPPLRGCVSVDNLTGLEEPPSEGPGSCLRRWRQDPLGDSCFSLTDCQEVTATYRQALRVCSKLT

[9] = biological target: Ribosomal protein S6 kinase alpha-6 (Homo sapiens) (UniProt Q9UK32); assay: Inhibition of human RPS6KA6 assessed as residual activity at 1 uM using RBER-GSK3(14-27) as substrate in presence of 33P-ATP by ProQinase assay relative to control
Chain of Ribosomal protein S6 kinase alpha-6 (Homo sapiens) (Q9UK32 whole entry): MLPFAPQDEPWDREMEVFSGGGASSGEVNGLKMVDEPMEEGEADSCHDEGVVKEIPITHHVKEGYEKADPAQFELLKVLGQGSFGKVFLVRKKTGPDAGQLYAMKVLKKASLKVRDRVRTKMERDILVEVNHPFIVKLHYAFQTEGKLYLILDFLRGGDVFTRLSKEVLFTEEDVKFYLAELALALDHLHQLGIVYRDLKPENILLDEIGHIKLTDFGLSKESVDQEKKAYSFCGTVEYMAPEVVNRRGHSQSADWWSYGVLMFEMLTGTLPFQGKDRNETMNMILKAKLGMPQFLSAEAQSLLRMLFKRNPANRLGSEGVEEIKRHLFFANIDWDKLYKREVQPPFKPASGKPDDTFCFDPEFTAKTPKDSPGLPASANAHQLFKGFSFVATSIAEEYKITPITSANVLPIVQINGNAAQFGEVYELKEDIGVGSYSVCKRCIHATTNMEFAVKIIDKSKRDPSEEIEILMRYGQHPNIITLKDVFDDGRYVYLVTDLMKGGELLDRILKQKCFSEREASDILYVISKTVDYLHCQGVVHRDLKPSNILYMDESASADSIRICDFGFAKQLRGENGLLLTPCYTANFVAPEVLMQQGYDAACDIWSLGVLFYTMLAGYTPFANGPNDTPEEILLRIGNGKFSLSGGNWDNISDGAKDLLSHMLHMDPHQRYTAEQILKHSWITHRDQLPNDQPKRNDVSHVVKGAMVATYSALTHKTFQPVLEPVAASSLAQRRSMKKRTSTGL

[10] = biological target: Serine/threonine-protein kinase VRK1 (Homo sapiens) (UniProt Q99986); assay: Inhibition of human VRK1 assessed as residual activity at 1 uM using RBER-CHKtide as substrate in presence of 33P-ATP by ProQinase assay relative to control
Chain of Serine/threonine-protein kinase VRK1 (Homo sapiens) (Q99986 whole entry): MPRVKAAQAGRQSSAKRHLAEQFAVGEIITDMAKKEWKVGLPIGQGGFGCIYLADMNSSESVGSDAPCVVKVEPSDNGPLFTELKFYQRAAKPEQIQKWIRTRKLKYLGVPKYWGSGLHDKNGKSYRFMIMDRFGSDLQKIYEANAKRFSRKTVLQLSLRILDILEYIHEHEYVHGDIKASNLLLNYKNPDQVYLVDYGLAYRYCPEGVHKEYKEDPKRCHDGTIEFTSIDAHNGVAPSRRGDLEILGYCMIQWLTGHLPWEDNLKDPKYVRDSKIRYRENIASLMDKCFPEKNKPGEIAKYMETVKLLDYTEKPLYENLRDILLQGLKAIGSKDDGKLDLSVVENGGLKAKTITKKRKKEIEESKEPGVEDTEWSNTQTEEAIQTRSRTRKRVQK

## O=C1c2ccc(Nc3ccc(F)cc3F)cc2CCc2ccc(OC[C@H](O)CO)cc21 [Skepinone-L]
[1]
  Activity: 115%
[2]
  Activity: 104%
[3]
  Activity: 109%
[4]
  Activity: 94%
[5]
  Activity: 89%
[6]
  Activity: 96%
[7]
  Activity: 100%
[8]
  Activity: 100%
[9]
  Activity: 85%
[10]
  Activity: 88%
